{"source": "patent US9694021B2", "about": "“Pharmaceutical compositions with phosphonium antimicrobial agents” (Alcon Research, Ltd., priority 2010, dated 2017)", "format_in_all_cases": "cell-based", "key": {"[1]": {"test_system": "Staph Aureus", "assay": "Preservative efficacy test (PET), Staph Aureus", "settings": "boric acid/mannitol/NaCl, pH 6.0", "source_text": "(§1) The present invention is particularly useful for the provision of multi-dose pharmaceutical (e.g., ophthalmic) compositions that have sufficient antimicrobial activity to allow the compositions to satisfy the USP preservative efficacy requirements, as well as other preservative efficacy standards for aqueous pharmaceutical compositions.\n(§2) The preservative efficacy standards for multi-dose ophthalmic solutions in the U.S. and other countries/regions are set forth in the following table:\n(§3) Concentrations for the various ingredients of the compositions of the examples provided below are w/v % unless otherwise specifically stated. The compositions of Examples A-D and their preservation efficacy testing (PET) results are provided below."}, "[2]": {"test_system": "Pseudomonas A.", "assay": "Preservative efficacy test (PET), Pseudomonas A.", "settings": "boric acid/mannitol/NaCl, pH 6.0", "source_text": "as §1, §2, §3"}, "[3]": {"test_system": "E. Coli", "assay": "Preservative efficacy test (PET), E. Coli", "settings": "boric acid/mannitol/NaCl, pH 6.0", "source_text": "as §1, §2, §3"}, "[4]": {"test_system": "Candida A.", "assay": "Preservative efficacy test (PET), Candida A.", "settings": "boric acid/mannitol/NaCl, pH 6.0", "source_text": "as §1, §2, §3"}, "[5]": {"test_system": "Aspergillus N.", "assay": "Preservative efficacy test (PET), Aspergillus N.", "settings": "boric acid/mannitol/NaCl, pH 6.0", "source_text": "as §1, §2, §3"}, "[6]": {"test_system": "Bacteria, Fungi", "assay": "PET overall result (Pass/Fail against USP / Ph. Eur. criteria)", "settings": "for PET Results (Pass/Fail): boric acid/mannitol/NaCl, pH 6.0", "source_text": "as §1, §2, §3"}, "[7]": {"test_system": "canine epithelial cells", "assay": "Cytotoxicity, neutral red retention", "source_text": "FIGS. 1 and 2 illustrate the relative cytotoxicity of compounds, some of which are in accordance with the present invention.\nFIGS. 1 and 2 illustrate the cytotoxicity of the compounds shown in the above examples. In particular, these Figures show the neutral red retention of canine epithelial cells for the various compounds with the greater neutral red retention showing the lower the cytotoxicity. […] As such, many of these phosphonium antimicrobial agents can be used as suitable replacements for benzalkonium chloride particularly in circumstances where benzalkonium chloride is unsuitable (e.g., is incompatible with other ingredients in a solution)."}}}
{"smiles": "OC[P+](CO)(CO)CO.[Cl-]", "note": "[Tetrakis-Hydroxymethyl-Phosphonium Chloride]", "values": [{"measurement": "Staph Aureus (6 Hr), PET log order reduction", "setting": "[1]; 0.0025 % w/v", "value": "5.0/5.0/"}, {"measurement": "Staph Aureus (6 Hr), PET log order reduction", "setting": "[1]; 0.005 % w/v", "value": "5.0/5.0/"}, {"measurement": "Staph Aureus (6 Hr), PET log order reduction", "setting": "[1]; 0.01 % w/v", "value": "5.0/5.0/"}, {"measurement": "Staph Aureus (7 Day), PET log order reduction", "setting": "[1]; 0.0025 % w/v", "value": "5.0/5.0/5.0"}, {"measurement": "Staph Aureus (7 Day), PET log order reduction", "setting": "[1]; 0.005 % w/v", "value": "5.0/5.0/5.0"}, {"measurement": "Staph Aureus (7 Day), PET log order reduction", "setting": "[1]; 0.01 % w/v", "value": "5.0/5.0/5.0"}, {"measurement": "Staph Aureus (14 Day), PET log order reduction", "setting": "[1]; 0.0025 % w/v", "value": "5.0/5.0/5.0"}, {"measurement": "Staph Aureus (14 Day), PET log order reduction", "setting": "[1]; 0.005 % w/v", "value": "5.0/5.0/5.0"}, {"measurement": "Staph Aureus (14 Day), PET log order reduction", "setting": "[1]; 0.01 % w/v", "value": "5.0/5.0/5.0"}, {"measurement": "Staph Aureus (24 Hr), PET log order reduction", "setting": "[1]; 0.0025 % w/v", "value": "5.0/5.0/"}, {"measurement": "Staph Aureus (24 Hr), PET log order reduction", "setting": "[1]; 0.005 % w/v", "value": "5.0/5.0/"}, {"measurement": "Staph Aureus (24 Hr), PET log order reduction", "setting": "[1]; 0.01 % w/v", "value": "5.0/5.0/"}, {"measurement": "Staph Aureus (28 Day), PET log order reduction", "setting": "[1]; 0.0025 % w/v", "value": "5.0/5.0/5.0"}, {"measurement": "Staph Aureus (28 Day), PET log order reduction", "setting": "[1]; 0.005 % w/v", "value": "5.0/5.0/5.0"}, {"measurement": "Staph Aureus (28 Day), PET log order reduction", "setting": "[1]; 0.01 % w/v", "value": "5.0/5.0/5.0"}, {"measurement": "Pseudomonas A. (6 Hr), PET log order reduction", "setting": "[2]; 0.0025 % w/v", "value": 3.3}, {"measurement": "Pseudomonas A. (6 Hr), PET log order reduction", "setting": "[2]; 0.005 % w/v", "value": "5.0/5.0/"}, {"measurement": "Pseudomonas A. (6 Hr), PET log order reduction", "setting": "[2]; 0.01 % w/v", "value": "5.0/5.0/"}, {"measurement": "Pseudomonas A. (7 Day), PET log order reduction", "setting": "[2]; 0.0025 % w/v", "value": "5.0/5.0/5.0"}, {"measurement": "Pseudomonas A. (7 Day), PET log order reduction", "setting": "[2]; 0.005 % w/v", "value": "5.0/5.0/5.0"}, {"measurement": "Pseudomonas A. (7 Day), PET log order reduction", "setting": "[2]; 0.01 % w/v", "value": "5.0/5.0/5.0"}, {"measurement": "Pseudomonas A. (14 Day), PET log order reduction", "setting": "[2]; 0.0025 % w/v", "value": "5.0/5.0/5.0"}, {"measurement": "Pseudomonas A. (14 Day), PET log order reduction", "setting": "[2]; 0.005 % w/v", "value": "5.0/5.0/5.0"}, {"measurement": "Pseudomonas A. (14 Day), PET log order reduction", "setting": "[2]; 0.01 % w/v", "value": "5.0/5.0/5.0"}, {"measurement": "Pseudomonas A. (24 Hr), PET log order reduction", "setting": "[2]; 0.0025 % w/v", "value": 5.0}, {"measurement": "Pseudomonas A. (24 Hr), PET log order reduction", "setting": "[2]; 0.005 % w/v", "value": "5.0/5.0/"}, {"measurement": "Pseudomonas A. (24 Hr), PET log order reduction", "setting": "[2]; 0.01 % w/v", "value": "5.0/5.0/"}, {"measurement": "Pseudomonas A. (28 Day), PET log order reduction", "setting": "[2]; 0.0025 % w/v", "value": "5.0/5.0/5.0"}, {"measurement": "Pseudomonas A. (28 Day), PET log order reduction", "setting": "[2]; 0.005 % w/v", "value": "5.0/5.0/5.0"}, {"measurement": "Pseudomonas A. (28 Day), PET log order reduction", "setting": "[2]; 0.01 % w/v", "value": "5.0/5.0/5.0"}, {"measurement": "E. Coli (6 Hr), PET log order reduction", "setting": "[3]; 0.0025 % w/v", "value": "5.1/5.1/"}, {"measurement": "E. Coli (6 Hr), PET log order reduction", "setting": "[3]; 0.005 % w/v", "value": "5.1/5.1/"}, {"measurement": "E. Coli (6 Hr), PET log order reduction", "setting": "[3]; 0.01 % w/v", "value": "5.1/5.1/"}, {"measurement": "E. Coli (7 Day), PET log order reduction", "setting": "[3]; 0.0025 % w/v", "value": "5.1/5.1/5.1"}, {"measurement": "E. Coli (7 Day), PET log order reduction", "setting": "[3]; 0.005 % w/v", "value": "5.1/5.1/5.1"}, {"measurement": "E. Coli (7 Day), PET log order reduction", "setting": "[3]; 0.01 % w/v", "value": "5.1/5.1/5.1"}, {"measurement": "E. Coli (14 Day), PET log order reduction", "setting": "[3]; 0.0025 % w/v", "value": "5.1/5.1/5.1"}, {"measurement": "E. Coli (14 Day), PET log order reduction", "setting": "[3]; 0.005 % w/v", "value": "5.1/5.1/5.1"}, {"measurement": "E. Coli (14 Day), PET log order reduction", "setting": "[3]; 0.01 % w/v", "value": "5.1/5.1/5.1"}, {"measurement": "E. Coli (24 Hr), PET log order reduction", "setting": "[3]; 0.0025 % w/v", "value": "5.1/5.1/"}, {"measurement": "E. Coli (24 Hr), PET log order reduction", "setting": "[3]; 0.005 % w/v", "value": "5.1/5.1/"}, {"measurement": "E. Coli (24 Hr), PET log order reduction", "setting": "[3]; 0.01 % w/v", "value": "5.1/5.1/"}, {"measurement": "E. Coli (28 Day), PET log order reduction", "setting": "[3]; 0.0025 % w/v", "value": "5.1/5.1/5.1"}, {"measurement": "E. Coli (28 Day), PET log order reduction", "setting": "[3]; 0.005 % w/v", "value": "5.1/5.1/5.1"}, {"measurement": "E. Coli (28 Day), PET log order reduction", "setting": "[3]; 0.01 % w/v", "value": "5.1/5.1/5.1"}, {"measurement": "Candida A. (7 Day), PET log order reduction", "setting": "[4]; 0.0025 % w/v", "value": 0.0}, {"measurement": "Candida A. (7 Day), PET log order reduction", "setting": "[4]; 0.005 % w/v", "value": 0.1}, {"measurement": "Candida A. (7 Day), PET log order reduction", "setting": "[4]; 0.01 % w/v", "value": 0.9}, {"measurement": "Candida A. (14 Day), PET log order reduction", "setting": "[4]; 0.0025 % w/v", "value": 0.2}, {"measurement": "Candida A. (14 Day), PET log order reduction", "setting": "[4]; 0.005 % w/v", "value": 0.7}, {"measurement": "Candida A. (14 Day), PET log order reduction", "setting": "[4]; 0.01 % w/v", "value": 2.2}, {"measurement": "Candida A. (28 Day), PET log order reduction", "setting": "[4]; 0.0025 % w/v", "value": 1.2}, {"measurement": "Candida A. (28 Day), PET log order reduction", "setting": "[4]; 0.005 % w/v", "value": 2.0}, {"measurement": "Candida A. (28 Day), PET log order reduction", "setting": "[4]; 0.01 % w/v", "value": 3.9}, {"measurement": "Aspergillus N. (7 D), PET log order reduction", "setting": "[5]; 0.0025 % w/v", "value": 3.1}, {"measurement": "Aspergillus N. (7 D), PET log order reduction", "setting": "[5]; 0.005 % w/v", "value": 3.3}, {"measurement": "Aspergillus N. (7 D), PET log order reduction", "setting": "[5]; 0.01 % w/v", "value": 3.2}, {"measurement": "Aspergillus N. (14 D), PET log order reduction", "setting": "[5]; 0.0025 % w/v", "value": 2.9}, {"measurement": "Aspergillus N. (14 D), PET log order reduction", "setting": "[5]; 0.005 % w/v", "value": 3.2}, {"measurement": "Aspergillus N. (14 D), PET log order reduction", "setting": "[5]; 0.01 % w/v", "value": 5.3}, {"measurement": "Aspergillus N. (28 Day), PET log order reduction", "setting": "[5]; 0.0025 % w/v", "value": 2.4}, {"measurement": "Aspergillus N. (28 Day), PET log order reduction", "setting": "[5]; 0.005 % w/v", "value": 3.2}, {"measurement": "Aspergillus N. (28 Day), PET log order reduction", "setting": "[5]; 0.01 % w/v", "value": 5.3}, {"measurement": "PET Results (Pass/Fail)", "setting": "[6]; 0.0025 % w/v", "value": "Pass USP"}, {"measurement": "PET Results (Pass/Fail)", "setting": "[6]; 0.005 % w/v", "value": "Pass USP"}, {"measurement": "PET Results (Pass/Fail)", "setting": "[6]; 0.01 % w/v", "value": "Pass EP-B"}, {"measurement": "preservation / antimicrobial efficacy, in words", "setting": "[6]; summary statements of the text on the PET tables", "value": "highly desirable antimicrobial efficacy"}, {"measurement": "cytotoxicity (neutral red retention of canine epithelial cells)", "setting": "[7]; FIG. 1, greater neutral red retention = lower cytotoxicity", "value": "extremely low level of cytotoxicity"}, {"measurement": "cytotoxicity (neutral red retention of canine epithelial cells)", "setting": "[7]; FIG. 2, various concentrations and vehicles", "value": "extremely low toxicity regardless of concentration and/or the vehicle"}]}
